# Measurements published in US12582641B2, “Sulfur-containing compound based on glutarimide skeleton and application thereof” (SHANGHAITECH UNIVERSITY, priority 2019, dated 2026).
# Test system: MM.1S cells
# Test: Proliferation inhibition (IC50) in MM.1S cells, cell viability assay
# Settings: Homo sapiens, MM1.S, 72 h, read-out: IC50 (nM), proliferation inhibitory activity of MM.1S cells (half inhibitory concentration)
# Experimental: MM.1S (B lymphoblast) was purchased from ATCC. Complete medium was RPMI1640 supplemented with 10% FBS and 1% Penicillin-Streptomycin. The cells used were identified as correct cells by STR cells, and were negative for mycoplasma through routine inspections.
# IC50 values of the compounds of the present disclosure were measured using Cell Titer Blue, Cell Titer GLO, or WST reagent from Promega Company. Assay details are as follows: Cells were seeded in 100 μL RPMI1640 complete medium containing serum at a density of 15,000 cells/well. After 24 h, the inoculated cells were treated with diluted commercial inhibitor and the compounds of the present disclosure to be tested after serial dilution. After the cells were treated with the compounds of the present disclosure to be tested for 72 h, cell viability was determined after adding the cell viability detection kit listed above according to the reagent operating instructions. The negative control was DMSO, and the positive control was a commercial inhibitor, both of which were used to treat the cells through the same method as that of the compounds of the present disclosure. The growth inhibition of the compounds of the present disclosure on cells was plotted by Prism Graphpad software, and the IC50 values of the compounds of the present disclosure were calculated therefrom.
# We tested the activities of the compounds of the present invention in MM.1S cell (which overexpressed IKZF1/3 and is highly sensitive to immunomodulatory drugs) through a dose-dependent manner. The cells were treated with the compounds of the present invention at 10 different successively decreasing concentrations (starting at the highest concentration of 10 μM; 5-fold serial dilutions) for 72 h, and then the cell viability determination was performed in accordance with CCK-8 reagent operating instructions. The experiment was repeated more than three times.
row,SMILES,IC50
1,"O=C1CCC(N2Cc3c(SCc4ccc(CNCC5CCCCC5)cc4)cccc3C2=O)C(=O)N1 (stereo not drawn) [SIAIS1222187, 3-(4-((4-(((cyclohexylmethyl)amino)methyl)benzyl)thio)-1-oxoisoindolin-2-yl)piperidine-2,6-dione]",0.005 nM
2,"O=C1CCC(N2C(=O)c3cccc(SCCCCCCCNC4CC5(CCC5)C4)c3C2=O)C(=O)N1 (stereo not drawn) [SIAIS1224015, 2-(2,6-dioxopiperidin-3-yl)-4-((7-(spiro[3.3]heptan-2-ylamino)heptyl)thio)isoindoline-1,3-dione]",0.691 nM
3,"O=C1CCC(N2Cc3c(SCc4ccc(CNCC5CCCCO5)cc4)cccc3C2=O)C(=O)N1 (stereo not drawn) [SIAIS1224019, 3-(1-oxo-4-((4-((((tetrahydro-2H-pyran-2-yl)methyl)amino)methyl)benzyl)thio)isoindolin-2-yl)piperidine-2,6-dione]",0.048 nM
4,"O=C1CCC(N2Cc3c(SCCCCCCCN4Cc5ccccc5C4)cccc3C2=O)C(=O)N1 (stereo not drawn) [SIAIS1224033, 3-(4-((7-(isoindolin-2-yl)heptyl)thio)-1-oxoisoindolin-2-yl)piperidine-2,6-dione]",0.082 nM
5,"O=C1CCC(N2Cc3c(SCCCCCCCN[C@@H]4CN5CCC4CC5)cccc3C2=O)C(=O)N1 (stereo partly drawn) [SIAIS1224035, 3-(1-oxo-4-((7-(((S)-quinuclidin-3-yl)amino)heptyl)thio)isoindolin-2-yl)piperidine-2,6-dione]",15.1 nM
6,"O=C1CCC(N2Cc3c(SCCCCCCCN[C@H]4CN5CCC4CC5)cccc3C2=O)C(=O)N1 (stereo partly drawn) [SIAIS1224037, 3-(1-oxo-4-((7-(((R)-quinuclidin-3-yl)amino)heptyl)thio)isoindolin-2-yl)piperidine-2,6-dione]",14 nM
7,"CS(=O)(=O)N1CCN(CCCCCCCSc2cccc3c2CN(C2CCC(=O)NC2=O)C3=O)CC1 (stereo not drawn) [SIAIS1224039, 3-(4-((7-(4-(methylsulfonyl)piperazin-1-yl)heptyl)thio)-1-oxoisoindolin-2-yl)piperidine-2,6-dione]",0.54 nM
8,"O=C1CCC(N2Cc3c(SCc4ccc(CN5CCSCC5)cc4)cccc3C2=O)C(=O)N1 (stereo not drawn) [SIAIS1224089, 3-(1-oxo-4-((4-(thiomorpholinomethyl)benzyl)thio)isoindolin-2-yl)piperidine-2,6-dione]",0.144 nM
9,"CN1C(=O)CCC(N2Cc3c(SCc4ccc(CN5CCCCC5)cc4)cccc3C2=O)C1=O (stereo not drawn) [SIAIS1224101, 1-methyl-3-(1-oxo-4-((4-(piperidin-1-ylmethyl)benzyl)thio)isoindolin-2-yl)piperidine-2,6-dione]",287 nM
10,"O=C1CCC(N2Cc3c(SCCc4ccc(CCN5CCCCC5)cc4)cccc3C2=O)C(=O)N1 (stereo not drawn) [SIAIS1224117, 3-(1-oxo-4-((4-(2-(piperidin-1-yl)ethyl)phenethyl)thio)isoindolin-2-yl)piperidine-2,6-dione]",0.19 ± 0.01 nM

# Continued, values first:
row,IC50,SMILES
1,0.693 nM,"O=C1CCC(N2Cc3c(SCCCNC45CC6CC(CC(C6)C4)C5)cccc3C2=O)C(=O)N1 (stereo not drawn) [SIAIS1222177, 3-(4-((3-(adamantan-1-ylamino)propyl)thio)-1-oxoisoindolin-2-yl)piperidine-2,6-dione]"
2,0.074 nM,"O=C1CCC(N2Cc3c(SCCCCNC45CC6CC(CC(C6)C4)C5)cccc3C2=O)C(=O)N1 (stereo not drawn) [SIAIS1222179, 3-(4-((4-((adamantan-1-yl)amino)butyl)thio)-1-oxoisoindolin-2-yl)piperidine-2,6-dione]"
3,0.046 nM,"O=C1CCC(N2Cc3c(SCCCCCCCN4CCC5(CC4)CC5)cccc3C2=O)C(=O)N1 (stereo not drawn) [SIAIS1222195, 3-(4-((7-(6-azaspiro[2.5]octan-6-yl)heptyl)thio)-1-oxoisoindolin-2-yl)piperidine-2,6-dione]"
4,0.062 nM,"O=C1CCC(N2Cc3c(SCCCCCCCNCC4CCCCC4)cccc3C2=O)C(=O)N1 (stereo not drawn) [SIAIS1222199, 3-(4-((7-((cyclohexylmethyl)amino)heptyl)thio)-1-oxoisoindolin-2-yl)piperidine-2,6-dione]"
5,0.105 nM,"O=C1CCC(N2Cc3c(SCCCCCCCNC(C4CC4)C4CC4)cccc3C2=O)C(=O)N1 (stereo not drawn) [SIAIS1224031, 3-(4-((7-((dicyclopropylmethyl)amino)heptyl)thio)-1-oxoisoindolin-2-yl)piperidine-2,6-dione]"
